Results taken from patent publication US10889592B2, “Thienopyrazine carboxamides as ubiquitin-specific protease inhibitors” (VALO EARLY DISCOVERY, INC., priority 2016, dated 2021).

How the values were obtained:
[1] = target: USP28 (Homo sapiens (Human), UniProt Q96RU2); test: Ubiquitin-Rhodamine 110 Assay for USP28 Activity; assay type: biochemical; settings: Ub-Rh110 substrate 25 nM, fluorescence readout
Protocol: Each assay was performed in a final volume of 20 μL in assay buffer containing 20 mM Tris-HCl (pH 8.0, (1M Tris-HCl, pH 8.0 solution; Corning 46-031-CM)), 2 mM CaCl2) (1M Calcium Chloride solution; Sigma #21114) 2 mM BME (2-Mercaptoethanol; Sigma 63689-25ML-F), 0.01% Prionex (0.22 μM filtered, Sigma # G-0411), and 0.01% Triton X-100. Stock compound solutions were stored at −20° C. as 10 mM in DMSO. Up to 1 month prior to the assay, 2 mM test compounds were pre-dispensed into assay plates (Black, low volume; Corning #3820) and frozen at −20° C. Prestamped assay plates were allowed to come to room temperature on the day of the assay. For the screen, 100 nL of 2 mM was pre-dispensed for a final screening concentration of 10 μM (DMSO(fc)=0.5%). Enzyme (USP28, construct USP28 (USP28-5(1-1077)-TEV-6*His; LifeSensors) concentration and incubation times were optimized for the maximal signal-to-background while maintaining initial velocity conditions at a fixed substrate concentration. The final concentration of the enzyme in the assay was 400 pM. Final substrate (Ub-Rh110; Ubiquitin-Rhodamine 110, R&D Systems # U-555) concentration was 25 nM with [Ub-Rh110]<<Km. 10 μL of 2× enzyme was added to assay plates (pre-stamped with compound) either simultaneously with 2×Ub-Rh110 or preincubated with USP28 40 minutes prior to the addition of 10 μL of 2×Ub-Rh110 to compound plates. Plates were incubated stacked for 90 minutes at room temperature before fluorescence was read on the Envision (Excitation at 485 nm and Emission at 535 nm; Perkin Elmer) or on the PheraSTAR (Excitation at 485 nm and Emission at 535 nm; BMG Labtech).
For follow-up studies, Each assay was performed in a final volume of 15 μL in assay buffer containing 20 mM Tris-HCl (pH 8.0, (1M Tris-HCl, pH 8.0 solution; Corning 46-031-CM)), 3 mM BME (2-Mercaptoethanol; Sigma 63689-25ML-F), 0.03% BGG ([…] filtered, Sigma, G7516-25G), and 0.01% Triton X-100 (Sigma, T9284-10L). Nanoliter quantities of either an 8-point or 10-point, 3-fold serial dilution in DMSO was pre-dispensed into assay plates (Perkin Elmer, ProxiPlate-384 F Plus, #) for a final test concentration of either 25 μM to 11 nM or 25 μM to 1.3 nM, respectively. Enzyme USP28, construct USP28 (USP28-5(1-1077)-TEV-6*His; LifeSensors) concentration and incubation times were optimized for the maximal signal-to-background while maintaining initial velocity conditions at a fixed substrate concentration. The final concentration of the enzyme in the assay was 75 pM. Final substrate (Ub-Rh110; Ubiquitin-Rhodamine 110, R&D Systems # U-555) concentration was 25 nM with [Ub-Rh110]<<Km. 5 μL of 2× enzyme was added to assay plates (pre-stamped with compound) preincubated with USP28 for 30 minutes and then 5 μL of 2×Ub-Rh110 was added to assay plates. Plates were incubated stacked for 20 minutes at room temperature before 5 μL of stop solution was added (final concentration of 10 mM citric acid (Sigma, 251275-500G)). Fluorescence was read on the Envision (Excitation at 485 nm and Emission at 535 nm; Perkin Elmer) or on the PheraSTAR (Excitation at 485 nm and Emission at 535 nm; BMG Labtech).
(§1) For both the USP28 and USP25 assay formats Data were reported as percent inhibition compared with control wells based on the following equation: % inh=1−((FLU−AveLow)/(AveHigh−AveLow)) where FLU=measured Fluorescence, AveLow=average Fluorescence of no enzyme control (n=16), and AveHigh=average Fluorescence of DMSO control (n=16). IC50 values were determined by curve fitting of the standard 4 parameter logistic fitting algorithm included in the Activity Base software package: IDBS XE Designer Model205. Data is fitted using the Levenburg Marquardt algorithm.

[2] = target: USP25 (Homo sapiens (Human), UniProt Q9UHP3); test: Ubiquitin-Rhodamine 110 Assay for USP25 Activity; assay type: biochemical; settings: Ub-Rh110 substrate 25 nM, fluorescence readout
Chain of USP25 (Q9UHP3 whole entry): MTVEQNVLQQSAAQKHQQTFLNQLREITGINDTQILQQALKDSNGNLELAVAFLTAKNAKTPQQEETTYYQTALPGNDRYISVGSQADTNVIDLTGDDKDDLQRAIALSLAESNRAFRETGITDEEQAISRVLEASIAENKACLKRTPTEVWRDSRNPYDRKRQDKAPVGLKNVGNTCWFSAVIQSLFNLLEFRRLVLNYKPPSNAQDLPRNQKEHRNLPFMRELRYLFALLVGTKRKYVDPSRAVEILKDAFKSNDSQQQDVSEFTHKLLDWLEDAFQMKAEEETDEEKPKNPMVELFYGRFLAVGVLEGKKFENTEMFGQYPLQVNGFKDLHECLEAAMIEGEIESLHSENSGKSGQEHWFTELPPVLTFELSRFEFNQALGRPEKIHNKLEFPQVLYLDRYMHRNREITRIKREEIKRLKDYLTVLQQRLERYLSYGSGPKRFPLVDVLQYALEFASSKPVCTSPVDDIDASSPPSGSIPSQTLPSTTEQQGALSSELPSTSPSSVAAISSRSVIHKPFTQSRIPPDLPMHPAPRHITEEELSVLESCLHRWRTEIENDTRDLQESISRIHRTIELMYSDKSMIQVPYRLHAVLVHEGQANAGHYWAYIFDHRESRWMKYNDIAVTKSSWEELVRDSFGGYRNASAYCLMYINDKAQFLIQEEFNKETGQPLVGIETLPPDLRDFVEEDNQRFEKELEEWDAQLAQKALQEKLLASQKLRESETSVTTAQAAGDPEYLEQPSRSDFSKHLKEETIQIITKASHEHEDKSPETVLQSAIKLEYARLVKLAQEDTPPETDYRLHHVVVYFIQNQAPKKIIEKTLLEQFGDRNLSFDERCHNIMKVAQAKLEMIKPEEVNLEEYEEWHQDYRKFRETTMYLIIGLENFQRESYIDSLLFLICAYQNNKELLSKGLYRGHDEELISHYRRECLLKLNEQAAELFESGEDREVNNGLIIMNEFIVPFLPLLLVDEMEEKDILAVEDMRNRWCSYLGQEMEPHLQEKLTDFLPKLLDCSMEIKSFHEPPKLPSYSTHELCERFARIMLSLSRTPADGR
Protocol: The assay was performed in a final volume of 9 μL in assay buffer containing 20 mM Tris-HCl (pH 8.0, (1M Tris-HCl, pH 8.0 solution; Corning 46-031-CM)), 3 mM BME (2-Mercaptoethanol; Sigma 63689-25ML-F), 0.03% BGG ([…] filtered. Sigma, G7516-25G), and 0.01% Triton X-100 (Sigma, T9284-10L). Nanoliter quantities of 10-point, 3-fold serial dilution in DMSO was pre-dispensed into 1536 assay plates (Corning, #3724BC) for a final test concentration of 25 μM to 1.3 nM, top to lowest dose, respectively. Enzyme USP25, construct USP25-His6, (Boston Biochem E-546). Concentration and incubation times were optimized for the maximal signal-to-background while maintaining initial velocity conditions at a fixed substrate concentration. The final concentration of the enzyme in the assay was 75 pM. Final substrate (Ub-Rh110 Ubiquitin-Rhodamine 110, R&D Systems # U-555) concentration was 25 nM with [Ub-Rh110]<<Km. 3 μL of 2× enzyme was added to assay plates (pre-stamped with compound) preincubated with […] for 30 minutes and then 3 μL of 2×Ub-Rh110 was added to assay plates. Plates were incubated for 45 minutes at room temperature before addition of 3 μL of stop solution (final concentration of 10 mM citric acid (Sigma, 251275-500G)). Fluorescence was read on the Envision (Excitation at 485 nm and Emission at 535 nm; Perkin Elmer) or on the PheraSTAR (Excitation at 485 nm and Emission at 535 nm; BMG Labtech).
as §1

Chain of USP28 (Q96RU2 whole entry): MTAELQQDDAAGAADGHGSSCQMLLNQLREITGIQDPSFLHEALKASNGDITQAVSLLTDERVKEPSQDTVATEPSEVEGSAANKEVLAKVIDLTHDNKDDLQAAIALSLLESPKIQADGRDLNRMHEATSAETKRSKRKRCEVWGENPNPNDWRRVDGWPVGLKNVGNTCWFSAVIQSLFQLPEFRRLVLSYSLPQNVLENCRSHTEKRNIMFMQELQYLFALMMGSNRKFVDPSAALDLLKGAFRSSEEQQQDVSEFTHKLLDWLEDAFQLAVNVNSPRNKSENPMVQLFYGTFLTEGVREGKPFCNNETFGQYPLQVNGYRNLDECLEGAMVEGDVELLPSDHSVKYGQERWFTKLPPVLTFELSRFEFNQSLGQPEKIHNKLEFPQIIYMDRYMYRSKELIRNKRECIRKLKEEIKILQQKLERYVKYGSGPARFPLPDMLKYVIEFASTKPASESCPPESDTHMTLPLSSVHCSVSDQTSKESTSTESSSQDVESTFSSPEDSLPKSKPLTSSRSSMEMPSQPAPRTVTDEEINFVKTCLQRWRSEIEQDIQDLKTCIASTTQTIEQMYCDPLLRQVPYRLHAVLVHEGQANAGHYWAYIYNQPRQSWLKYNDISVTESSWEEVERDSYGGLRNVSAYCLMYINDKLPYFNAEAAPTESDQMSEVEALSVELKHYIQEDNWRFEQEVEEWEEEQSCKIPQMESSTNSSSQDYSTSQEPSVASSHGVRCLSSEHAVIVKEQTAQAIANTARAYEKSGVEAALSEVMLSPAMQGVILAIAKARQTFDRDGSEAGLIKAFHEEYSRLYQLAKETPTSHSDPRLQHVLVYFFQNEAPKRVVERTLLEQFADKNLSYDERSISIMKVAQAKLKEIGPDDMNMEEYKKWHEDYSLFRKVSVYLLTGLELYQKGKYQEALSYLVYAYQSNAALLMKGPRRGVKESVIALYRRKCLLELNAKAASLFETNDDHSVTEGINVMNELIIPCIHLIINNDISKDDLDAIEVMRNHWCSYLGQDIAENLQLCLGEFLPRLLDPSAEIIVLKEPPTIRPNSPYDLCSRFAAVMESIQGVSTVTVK

`Cc1cnc2c(N)c(C(=O)NC[C@@H](C)c3ccc(N4CC5CCC(C4)N5)c(C#N)c3)sc2n1` (single isomer, unassigned) [Compound I-18] was tested, and the IC50 [1] was 2000 to 10000 nM and the IC50 [2] was 2000 to 10000 nM.

Compound `Cc1cnc2c(N)c(C(=O)NC[C@H](C)c3ccc(N4CC5CCC(C4)N5)cc3F)sc2n1` (single isomer, unassigned) [Compound I-17] has an IC50 [1] of 200 to 2000 nM and an IC50 [2] of 2000 to 10000 nM.

For `Cc1cnc2c(N)c(C(=O)NCCc3cc(F)c(N4CC5CCC(C4)N5)cc3F)sc2n1` [Compound I-7, N-(4-(3,8-diazabicyclo[3.2.1]octan-3-yl)-2,5-difluorophenethyl)-7-amino-3-methylthieno[2,3-b]pyrazine-6-carboxamide], the IC50 [1] was under 200 nM and the IC50 [2] was 200 to 2000 nM.

`Cc1cnc2c(N)c(C(=O)NCCc3ccc(N4CCNCC4)c(Cl)c3)sc2n1` [Compound I-2] showed an IC50 [1] of 200 to 2000 nM.

For `Cc1cnc2c(N)c(C(=O)NCCc3c(F)cc(N4CC5CCC(C4)N5)cc3F)sc2n1` [Compound I-11], the IC50 [1] was 200 to 2000 nM and the IC50 [2] was 200 to 2000 nM.

For `Cc1cnc2c(N)c(C(=O)NCCc3ccc(N4CCNCC4)cc3)sc2n1` [Compound I-1, 7-Amino-3-methyl-N-(4-(piperazin-1-yl)phenethyl)thieno[2,3-b]pyrazine-6-carboxamide], the IC50 [1] was 200 to 2000 nM.

`Cc1cnc2c(N)c(C(=O)NC[C@@H](C)c3cc(F)c(N4CC5CCC(C4)N5)cc3F)sc2n1` (single isomer, unassigned) [Compound I-14] was tested, and the IC50 [1] was 2000 to 10000 nM.

Compound `Cc1cnc2c(N)c(C(=O)NC[C@@H](C)c3cc(F)c(N4CC5CNCC(C4)O5)cc3F)sc2n1` (single isomer, unassigned) [Compound I-21] has an IC50 [1] of 200 to 2000 nM and an IC50 [2] of 200 to 2000 nM.

For `Cc1cnc2c(N)c(C(=O)NCCc3ccc(N4CC5CCC(C4)N5)cc3F)sc2n1` [Compound I-10], the IC50 [1] was under 200 nM and the IC50 [2] was 200 to 2000 nM.

`Cc1cnc2c(N)c(C(=O)NCCc3cc(F)c(N4CCNCC4)cc3F)sc2n1` [Compound I-4] was tested, and the IC50 [1] was 200 to 2000 nM and the IC50 [2] was 2000 to 10000 nM.

Compound `Cc1cnc2c(N)c(C(=O)NC[C@H](C)c3cc(F)c(N4CC5CCC(C4)N5)cc3F)sc2n1` (single isomer, unassigned) [Compound I-15] has an IC50 [1] of under 200 nM and an IC50 [2] of 2000 to 10000 nM.

Work on `Cc1cnc2c(N)c(C(=O)NC[C@@H](C)c3ccc(N4CC5CCC(C4)N5)cc3F)sc2n1` (single isomer, unassigned) [Compound I-16] yielded an IC50 [1] of 200 to 2000 nM and an IC50 [2] of 200 to 2000 nM.

Compound `Cc1cnc2c(N)c(C(=O)NCCc3ccc(N4CC5CCC(C4)N5)c(Cl)c3)sc2n1` [Compound I-3, N-(4-(3,8-diazabicyclo[3.2.1]octan-3-yl)-3-chlorophenethyl)-7-amino-3-methylthieno[2,3-b]pyrazine-6-carboxamide] has an IC50 [1] of under 200 nM.

In the case of `Cc1cnc2c(N)c(C(=O)NC[C@H](C)c3ccc(N4CC5CCC(C4)N5)c(C#N)c3)sc2n1` (single isomer, unassigned) [Compound I-19], the IC50 [1] is reported as 2000 to 10000 nM and the IC50 [2] is reported as 2000 to 10000 nM.

For `Cc1cnc2c(N)c(C(=O)NC[C@H](C)c3cc(F)c(N4CC5CNCC(C4)O5)cc3F)sc2n1` (single isomer, unassigned) [Compound I-22], the IC50 [1] was 200 to 2000 nM and the IC50 [2] was 200 to 2000 nM.

Work on `Cc1cnc2c(N)c(C(=O)NCCc3ccc(N4CC5CCC(C4)N5)c(C#N)c3)sc2n1` [Compound I-9] yielded an IC50 [1] of 200 to 2000 nM and an IC50 [2] of 200 to 2000 nM.

`Cc1cnc2c(N)c(C(=O)NCCc3c(F)cc(N4CC5CNCC(C4)O5)cc3F)sc2n1` [Compound I-20] was tested, and the IC50 [1] was under 200 nM and the IC50 [2] was under 200 nM.

For `Cc1cnc2c(N)c(C(=O)NC[C@@H](C)c3ccc(N4CC5CCC(C4)N5)c(F)c3)sc2n1` (single isomer, unassigned) [Compound I-12], the IC50 [1] was 200 to 2000 nM and the IC50 [2] was 2000 to 10000 nM.

`Cc1cnc2c(N)c(C(=O)NCCc3ccc(N4CC5CCC(C4)N5)c(F)c3)sc2n1` [Compound I-6] showed an IC50 [1] of under 200 nM and an IC50 [2] of under 200 nM.

In the case of `Cc1cnc2c(N)c(C(=O)NC[C@H](C)c3ccc(N4CC5CCC(C4)N5)c(F)c3)sc2n1` (single isomer, unassigned) [Compound I-13], the IC50 [1] is reported as 200 to 2000 nM and the IC50 [2] is reported as 2000 to 10000 nM.

In the case of `CCc1cnc2c(N)c(C(=O)NCCc3ccc(N4CC5CCC(C4)N5)cc3)sc2n1` [Compound I-23], the IC50 [1] is reported as 2000 to 10000 nM and the IC50 [2] is reported as 200 to 2000 nM.
